This is an account of results in PMC11325506 (ACS Omega, 2024).

Each structure is given as a SMILES string.

Holding throughout (format): cell-based
Series [1] concerns Mycobacterium tuberculosis, strain H37Ra. The experiment in a line: Antimycobacterial activity against M. tuberculosis H37Ra (luminescence, dose-response). The settings on record: for IC50: Mycobacterium tuberculosis, 168 h, H37Ra lux, luminescence at day 7, top concentration 64 μM; for SI (selectivity index): calculated with the formula CC50/IC50 (MRC-5 cytotoxicity / H37Ra); for activity against Mtb H37Ra (in words): SAR discussion.

Series [2] is described as follows: In vitro cytotoxicity, resazurin assay. The settings on record: human, MRC-5 fibroblast cells (ATCC CCL-171), 3 days exposure. As for the experimental part: In vitro cytotoxicity was evaluated on the MRC-5 Homo sapiens […] fibroblast cell line (ATCC CCL-171). The MRC-5 cells were cultured in 75 cm^2 sterile Dulbecco’s modified Eagle’s medium (DMEM) supplemented with 10% heat-inactivated fetal calf serum in a 5% CO2 atmosphere at 37 °C. When a semiconfluent layer of cells was formed, the cells were trypsinized, washed with sterile PBS, seeded into a transparent, flat-bottomed 96-well plate at a density of 4 × 10^4 cells per well and left for recovery at 37 °C, 5% CO2 for at least 24 h. For each compound, a 2-fold serial dilution was made in complete DMEM with final concentrations ranging from 128 μM to 0.5 μM. Subsequently, the MRC-5 cells were exposed to the compounds by adding 100 μL of the serial dilutions to the wells. Test plates were incubated for 3 days in an atmosphere of 5% CO2 at 37 °C. For the resazurin assay, the cells were washed 2 times with 200 μL PBS, and 100 μL resazurin working solution was added per well. Subsequently, the plates were incubated at 37 °C, 5% CO2 for 3 h. To monitor the viable cell number after compound exposure, each well was analyzed using a microplate fluorometer equipped with a 560 nm excitation/590 nm emission filter set.
For orientation: The colour change of resazurin is a common sign of viable cells or microbes.

For the next series, the system named is Mycobacterium abscessus. The experiment in a line: microbe, parasite or virus in culture. The settings on record: Mycobacteroides abscessus, 72 h, read-out: IC50 against M. abscessus.

In general, IC50 refers to the concentration needed to halve the response being measured. As for `O=c1c(NCc2ccccn2)c(-c2ccc(OC(F)(F)F)cc2)c1=O` [Compound 6d, 3-((Pyridin-2-ylmethyl)amino)-4-(4-(trifluoromethoxy)phenyl)cyclobut-3-ene-1,2-dione], in series [1], it took 13.8 µM to reach half-maximal inhibition (IC50) and the “SI (selectivity index)” value is recorded as over 4.6.

`COc1ccc(-c2c(NCc3ccccn3)c(=O)c2=O)c2ccccc12` [Compound 6t, 3-(4-Methoxynaphthalen-1-yl)-4-((pyridin-2-ylmethyl)amino)cyclobut-3-ene-1,2-dione]: the IC50 in series [1] was over 64 µM.

In the case of `O=c1c(NCc2ccccn2)c(-c2ccc(OCc3ccccc3)cc2)c1=O` [Compound 6i, 3-(4-(Benzyloxy)phenyl)-4-((pyridin-2-ylmethyl)amino)cyclobut-3-ene-1,2-dione], the IC50 in series [1] was over 64 µM.

As for `O=c1c(NCc2ccccn2)c(-c2ccc(OCc3ccccc3)c(Cl)c2)c1=O` [Compound 6k, 3-(4-(Benzyloxy)-3-chlorophenyl)-4-((pyridin-2-ylmethyl)amino)cyclobut-3-ene-1,2-dione], the IC50 in series [1] was over 64 µM.

`COc1ccc(-c2c(NCc3ccccn3)c(=O)c2=O)c(F)c1F` [Compound 6o, 3-(2,3-Difluoro-4-methoxyphenyl)-4-((pyridin-2-ylmethyl)amino)cyclobut-3-ene-1,2-dione]: the IC50 in series [1] is over 64 µM.

Turning to `O=c1c(NCc2ccccn2)c(-c2ccc3c(c2)OCCO3)c1=O` [Compound 6v, 3-(2,3-Dihydrobenzo[b][1,4]dioxin-6-yl)-4-((pyridin-2-ylmethyl)amino)cyclobut-3-ene-1,2-dione], in series [1], the IC50 came out at 3.37 µM and the “SI (selectivity index)” value is reported as over 19.0.

For `Cc1ccc(-c2c(NCc3ccccn3)c(=O)c2=O)s1` [Compound 6z, 3-(5-Methylthiophen-2-yl)-4-((pyridin-2-ylmethyl)amino)cyclobut-3-ene-1,2-dione], in series [1], 2.98 µM corresponded to half-maximal inhibition (IC50) and the “SI (selectivity index)” value was over 21.5.

Take `O=c1c(NCc2ccccn2)c(-c2ccc(Oc3ccccc3)cc2)c1=O` [Compound 6h, 3-(4-Phenoxyphenyl)-4-((pyridin-2-ylmethyl)amino)cyclobut-3-ene-1,2-dione]: the IC50 in series [1] was over 64 µM.

Take `CC/C(=C(\c1ccccc1)c1ccc(OCCN(C)C)cc1)c1ccccc1` [Tamoxifen]: the half-inhibitory concentration (IC50) at 3 days in series [2] is 12.3 µM.

`COc1nc2ccc(Br)cc2cc1[C@@H](c1ccccc1)[C@@](O)(CCN(C)C)c1cccc2ccccc12` [Bedaquiline, reference compound] gave an IC50 in series [1] of 0.01 µM.

For `CC(C)(C)Oc1ccc(-c2c(NCc3ccccn3)c(=O)c2=O)cc1` [Compound 6f, 3-(4-(tert-Butoxy)phenyl)-4-((pyridin-2-ylmethyl)amino)cyclobut-3-ene-1,2-dione], in series [1], the IC50 is 4.67 µM and the “SI (selectivity index)” value was over 13.7.

On to `CCOc1c(C)cc(-c2c(NCc3ccccn3)c(=O)c2=O)cc1C` [Compound 6r, 3-(4-Ethoxy-3,5-dimethylphenyl)-4-((pyridin-2-ylmethyl)amino)cyclobut-3-ene-1,2-dione], for which, in series [1], the IC50 worked out at 13.5 µM and the “SI (selectivity index)” value is over 4.7.

Consider `O=c1c(NCc2ccccn2)c(-c2ccoc2)c1=O` [Compound 6x, 3-(Furan-3-yl)-4-((pyridin-2-ylmethyl)amino)cyclobut-3-ene-1,2-dione], for which, in series [1], the midpoint of inhibition, the IC50, lay at 29.1 µM and the “SI (selectivity index)” value is reported as over 2.2.

`O=c1c(NCc2ccccn2)c(-c2ccc(OCc3ccc(F)cc3)cc2)c1=O` [Compound 6j, 3-(4-((4-Fluorobenzyl)oxy)phenyl)-4-((pyridin-2-ylmethyl)amino)cyclobut-3-ene-1,2-dione] displayed an IC50 in series [1] of over 64 µM.

With `O=c1c(NCc2ccccn2)c(-c2ccc(Br)cc2)c1=O` [Compound 6b, 3-(4-Bromophenyl)-4-((pyridin-2-ylmethyl)amino)cyclobut-3-ene-1,2-dione], in series [1], half-maximal inhibition (IC50) was put at 3.49 µM and the “SI (selectivity index)” value is over 18.3.

Consider `CCOc1ccc2cc(-c3c(NCc4ccccn4)c(=O)c3=O)ccc2c1` [Compound 6w, 3-(6-Ethoxynaphthalen-2-yl)-4-((pyridin-2-ylmethyl)amino)cyclobut-3-ene-1,2-dione], for which, in series [1], the IC50 was over 64 µM and the “activity against Mtb H37Ra (in words)” value was “completely inactive”.

Turning to `COc1ccc(-c2c(NCc3ccccn3)c(=O)c2=O)cc1Cl` [Compound 6l, 3-(3-Chloro-4-methoxyphenyl)-4-((pyridin-2-ylmethyl)amino)cyclobut-3-ene-1,2-dione], in series [1], the IC50 was 1.51 µM and the “SI (selectivity index)” value is over 42.4.

As to `COc1c(N2C[C@@H]3CCCN[C@@H]3C2)c(F)cc2c(=O)c(C(=O)O)cn(C3CC3)c12` [Moxifloxacin], the IC50 in the series with Mycobacterium abscessus turned out to be 1.74 µM.

In the case of `O=c1c(NCc2ccccn2)c(-c2ccsc2)c1=O` [Compound 6y, 3-((Pyridin-2-ylmethyl)amino)-4-(thiophen-3-yl)cyclobut-3-ene-1,2-dione], in series [1], the IC50 was over 64 µM.

Consider `COCCOc1ccc(-c2c(NCc3ccccn3)c(=O)c2=O)cc1` [Compound 6g, 3-(4-(2-Methoxyethoxy)phenyl)-4-((pyridin-2-ylmethyl)amino)cyclobut-3-ene-1,2-dione], for which, in series [1], half-maximal inhibition (IC50) required 8.69 µM and the “SI (selectivity index)” value is given as over 7.4.

Consider `O=c1c(NCc2ccccn2)c(-c2ccc(O)cc2)c1=O` [Compound 6c, 3-(4-Hydroxyphenyl)-4-((pyridin-2-ylmethyl)amino)cyclobut-3-ene-1,2-dione], for which, in series [1], the IC50 worked out at 21.9 µM and the “SI (selectivity index)” value is over 2.9.

Regarding `CCCOc1ccc(-c2c(NCc3ccccn3)c(=O)c2=O)c(F)c1F` [Compound 6p, 3-(2,3-Difluoro-4-propoxyphenyl)-4-((pyridin-2-ylmethyl)amino)cyclobut-3-ene-1,2-dione], in series [1], the IC50 is over 64 µM and the “activity against Mtb H37Ra (in words)” value was “completely inactive”.

`O=c1c(NCc2ccccn2)c(-c2ccc(F)c(F)c2)c1=O` [Compound 6n, 3-(3,4-Difluorophenyl)-4-((pyridin-2-ylmethyl)amino)cyclobut-3-ene-1,2-dione]: in series [1], it took 2.46 µM to reach half-maximal inhibition (IC50) and the “SI (selectivity index)” value is reported as over 26.0.

For the compound `O=c1c(NCc2ccccn2)c(-c2ccc3c(c2)OCO3)c1=O` [Compound 6u, 3-(Benzo[d][1,3]dioxol-5-yl)-4-((pyridin-2-ylmethyl)amino)cyclobut-3-ene-1,2-dione], in series [1], the midpoint of inhibition, the IC50, lay at 19.9 µM and the “SI (selectivity index)” value is given as over 3.2.

For the compound `CCCCOc1ccc(-c2c(NCc3ccccn3)c(=O)c2=O)c(F)c1F` [Compound 6q, 3-(4-Butoxy-2,3-difluorophenyl)-4-((pyridin-2-ylmethyl)amino)cyclobut-3-ene-1,2-dione], in series [1], the IC50 was over 64 µM and the “activity against Mtb H37Ra (in words)” value was “completely inactive”.

Turning to `CSc1ccc(-c2c(NCc3ccccn3)c(=O)c2=O)cc1` [Compound 6e, 3-(4-(Methylthio)phenyl)-4-((pyridin-2-ylmethyl)amino)cyclobut-3-ene-1,2-dione], in series [1], inhibition was half-maximal at 4.56 µM (IC50) and the “SI (selectivity index)” value is on record as over 14.0.

As for `O=c1c(NCc2ccccn2)c(-c2cccc3ccccc23)c1=O` [Compound 6s, 3-(Naphthalen-1-yl)-4-((pyridin-2-ylmethyl)amino)cyclobut-3-ene-1,2-dione], the IC50 in series [1] was over 64 µM.

Take `O=c1c(NCc2ccccn2)c(-c2ccc(Cl)cc2C(F)(F)F)c1=O` [Compound 6m, 3-(4-Chloro-2-(trifluoromethyl)phenyl)-4-((pyridin-2-ylmethyl)amino)cyclobut-3-ene-1,2-dione]: the IC50 in series [1] is over 64 µM.

`Cc1ccc(-c2c(NCc3ccccn3)c(=O)c2=O)cc1` [Compound 6a, 3-((Pyridin-2-ylmethyl)amino)-4-(p-tolyl)cyclobut-3-ene-1,2-dione]: in series [1], the IC50 worked out at 2.01 µM and the “SI (selectivity index)” value is recorded as over 31.8.
